Measured values: BindingDB's records for patent US12357603 (Bayer Aktiengesellschaft; The Broad Institute, Inc., 2025)

Assays:
[1] = molecular target: Histone acetyltransferase KAT6A (UniProt Q92794); test: Kat6a Activity Assay
Method: Recombinant human His-tagged Kat6a protein (amino acids 194-810), was purified in-house from Baculovirus-infected insect cells (Sf9). Histone H4 peptide (amino acids 1-24, […]-VLRD-K(Btn)-amide), which was used as substrate, was synthesized by Biosyntan GmbH, Berlin, Germany. Acetyl Coenzyme A was purchased from Sigma-Aldrich (#A-2056).Kat6a was incubated for 60 mins at 22° C. in the presence of different concentrations of test substances (0 μM, and within the range 0.01-20 μM) in assay buffer [25 mM Tris/HCl pH 8, 1 mM EGTA, 2.5 mM Glutathion, 0.02% Chicken Albumin, 0.05% Pluronic F127, 25 mM NaCl, 220 nM H4 peptide and 600 nM Acetyl Coenzym A].The reaction was stopped by addition of Detection Solution (25 mM HEPES pH 7.5, 0.1% BSA, 22 nM SAXL665 (Cisbio #610SAXLE), 100 μM Anacardic Acid (Enzo #ALX-270-381), 1 nM Anti-Histone H4 (ACETYL K8) Antibody (ABCAM #AB15823) and 0.5 nM Anti-Rabbit IgG Eu (Perkin Elmer #AD0083).

[2] = molecular target: T1, Histone acetyltransferase KAT6B [431-2073] (Homo sapiens (Human), UniProt Q8WYB5); test: Kat6b Activity Assay
T1 construct: 431-2073
T1 sequence (Q8WYB5 431-2073): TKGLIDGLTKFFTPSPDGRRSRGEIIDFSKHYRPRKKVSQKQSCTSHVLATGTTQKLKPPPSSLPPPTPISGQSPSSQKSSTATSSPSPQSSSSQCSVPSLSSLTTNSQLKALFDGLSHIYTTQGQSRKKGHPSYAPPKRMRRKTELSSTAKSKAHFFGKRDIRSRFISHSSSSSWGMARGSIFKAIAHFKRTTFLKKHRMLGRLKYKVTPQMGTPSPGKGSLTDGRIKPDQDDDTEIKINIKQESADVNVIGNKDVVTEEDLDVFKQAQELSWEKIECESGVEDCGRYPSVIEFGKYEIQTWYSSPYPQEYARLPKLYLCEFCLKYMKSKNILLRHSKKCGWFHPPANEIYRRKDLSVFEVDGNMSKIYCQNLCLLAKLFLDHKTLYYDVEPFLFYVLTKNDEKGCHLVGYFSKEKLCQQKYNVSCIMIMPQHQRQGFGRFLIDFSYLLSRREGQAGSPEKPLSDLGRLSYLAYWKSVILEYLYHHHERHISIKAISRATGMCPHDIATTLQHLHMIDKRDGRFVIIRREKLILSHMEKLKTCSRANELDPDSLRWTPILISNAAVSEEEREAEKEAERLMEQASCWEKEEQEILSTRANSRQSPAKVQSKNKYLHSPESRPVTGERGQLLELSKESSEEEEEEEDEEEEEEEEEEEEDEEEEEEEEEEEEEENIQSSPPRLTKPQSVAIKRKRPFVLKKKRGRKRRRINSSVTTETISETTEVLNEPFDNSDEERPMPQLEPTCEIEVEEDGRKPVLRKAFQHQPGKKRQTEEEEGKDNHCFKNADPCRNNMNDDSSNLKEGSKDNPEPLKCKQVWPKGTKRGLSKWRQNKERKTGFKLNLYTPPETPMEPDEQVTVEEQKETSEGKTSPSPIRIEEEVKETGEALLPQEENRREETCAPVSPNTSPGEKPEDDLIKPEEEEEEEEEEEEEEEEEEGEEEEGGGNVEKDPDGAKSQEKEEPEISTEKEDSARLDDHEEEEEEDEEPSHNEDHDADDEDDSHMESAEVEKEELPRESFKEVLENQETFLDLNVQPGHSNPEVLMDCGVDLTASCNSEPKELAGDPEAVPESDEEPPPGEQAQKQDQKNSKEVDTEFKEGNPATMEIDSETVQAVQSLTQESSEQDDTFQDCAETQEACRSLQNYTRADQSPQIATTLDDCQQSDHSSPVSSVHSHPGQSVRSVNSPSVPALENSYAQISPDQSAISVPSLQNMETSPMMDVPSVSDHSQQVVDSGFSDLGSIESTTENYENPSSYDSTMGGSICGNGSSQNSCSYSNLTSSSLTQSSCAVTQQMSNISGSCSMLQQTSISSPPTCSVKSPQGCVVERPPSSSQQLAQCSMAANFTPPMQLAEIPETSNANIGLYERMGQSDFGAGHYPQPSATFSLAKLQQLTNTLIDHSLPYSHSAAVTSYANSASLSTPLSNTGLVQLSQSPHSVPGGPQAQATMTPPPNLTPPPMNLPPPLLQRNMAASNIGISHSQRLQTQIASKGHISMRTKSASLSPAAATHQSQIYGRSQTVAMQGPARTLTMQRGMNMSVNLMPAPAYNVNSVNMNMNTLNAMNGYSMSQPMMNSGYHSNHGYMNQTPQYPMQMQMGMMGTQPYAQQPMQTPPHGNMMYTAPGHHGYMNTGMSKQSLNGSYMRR

Sequence of Histone acetyltransferase KAT6A (Q92794 whole entry, the tested form may be a part): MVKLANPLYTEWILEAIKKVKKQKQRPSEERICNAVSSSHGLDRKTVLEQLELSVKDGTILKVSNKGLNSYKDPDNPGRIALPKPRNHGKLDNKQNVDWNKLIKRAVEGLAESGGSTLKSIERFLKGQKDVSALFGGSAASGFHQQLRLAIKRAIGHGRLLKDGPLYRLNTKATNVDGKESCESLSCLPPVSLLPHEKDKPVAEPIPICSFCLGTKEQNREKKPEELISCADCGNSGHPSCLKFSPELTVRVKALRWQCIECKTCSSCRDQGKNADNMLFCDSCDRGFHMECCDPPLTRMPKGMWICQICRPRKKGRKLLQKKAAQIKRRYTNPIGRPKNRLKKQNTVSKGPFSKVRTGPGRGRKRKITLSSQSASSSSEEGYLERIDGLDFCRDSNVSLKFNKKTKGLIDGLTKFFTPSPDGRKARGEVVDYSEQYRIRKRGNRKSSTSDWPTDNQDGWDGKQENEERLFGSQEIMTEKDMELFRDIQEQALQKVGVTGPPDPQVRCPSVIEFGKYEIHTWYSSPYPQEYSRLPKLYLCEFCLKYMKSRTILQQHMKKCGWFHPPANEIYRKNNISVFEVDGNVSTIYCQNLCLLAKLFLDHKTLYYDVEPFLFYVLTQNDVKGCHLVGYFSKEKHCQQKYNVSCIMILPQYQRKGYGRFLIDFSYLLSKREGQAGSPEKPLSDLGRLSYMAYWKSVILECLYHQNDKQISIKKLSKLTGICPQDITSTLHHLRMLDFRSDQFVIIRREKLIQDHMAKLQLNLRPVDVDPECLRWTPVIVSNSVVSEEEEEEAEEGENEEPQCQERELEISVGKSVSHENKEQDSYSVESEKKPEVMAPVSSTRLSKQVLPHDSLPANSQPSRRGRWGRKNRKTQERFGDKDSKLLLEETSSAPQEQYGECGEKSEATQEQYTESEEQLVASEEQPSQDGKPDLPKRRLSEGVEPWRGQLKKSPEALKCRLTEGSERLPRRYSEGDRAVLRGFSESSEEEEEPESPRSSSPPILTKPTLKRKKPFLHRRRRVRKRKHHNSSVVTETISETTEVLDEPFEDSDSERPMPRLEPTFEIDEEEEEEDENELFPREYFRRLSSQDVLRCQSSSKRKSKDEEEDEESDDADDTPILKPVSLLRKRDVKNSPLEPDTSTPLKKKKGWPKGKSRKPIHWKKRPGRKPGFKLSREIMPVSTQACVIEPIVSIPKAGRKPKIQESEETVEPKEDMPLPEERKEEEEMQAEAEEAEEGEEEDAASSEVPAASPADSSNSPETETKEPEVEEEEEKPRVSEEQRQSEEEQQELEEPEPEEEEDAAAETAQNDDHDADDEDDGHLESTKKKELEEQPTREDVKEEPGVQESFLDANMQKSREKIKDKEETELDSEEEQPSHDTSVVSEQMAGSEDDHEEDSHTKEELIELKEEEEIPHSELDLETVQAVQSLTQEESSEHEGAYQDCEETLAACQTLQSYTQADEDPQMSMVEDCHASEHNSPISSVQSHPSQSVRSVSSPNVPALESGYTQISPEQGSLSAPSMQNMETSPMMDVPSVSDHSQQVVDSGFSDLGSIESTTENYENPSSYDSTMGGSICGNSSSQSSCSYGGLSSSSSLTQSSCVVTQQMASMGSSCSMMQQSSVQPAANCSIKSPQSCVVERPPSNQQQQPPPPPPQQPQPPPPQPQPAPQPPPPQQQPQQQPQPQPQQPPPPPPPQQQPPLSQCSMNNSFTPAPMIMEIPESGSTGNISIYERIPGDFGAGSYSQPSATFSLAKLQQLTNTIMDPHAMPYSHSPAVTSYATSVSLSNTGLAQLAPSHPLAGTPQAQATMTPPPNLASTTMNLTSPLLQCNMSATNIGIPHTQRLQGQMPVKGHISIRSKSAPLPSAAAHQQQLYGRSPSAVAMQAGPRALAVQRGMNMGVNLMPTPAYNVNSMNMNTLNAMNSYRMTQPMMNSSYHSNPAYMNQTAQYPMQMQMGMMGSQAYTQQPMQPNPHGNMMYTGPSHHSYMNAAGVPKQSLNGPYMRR

SMILES | IC50 [1] [nM] | IC50 [2] [nM]
CCCN(C)c1ccc2cc(C(=O)NS(=O)(=O)c3ccccc3-c3ccccc3)oc2c1 [US12357603, Example 37] |  | 1060
CCCc1ccccc1S(=O)(=O)NC(=O)c1cc2ccc(N(C)C)cc2o1 [US12357603, Example 52] | 187 | 
CN(c1ccccc1)c1ccc2cc(C(=O)NS(=O)(=O)c3ccc(Cl)cc3Cl)oc2c1 [US12357603, Example 09] | 2550 | 5720
CN(C)c1ccc2cc(C(=O)NS(=O)(=O)c3ccccc3-c3ccc(CO)cc3)oc2c1 [US12357603, Example 51] | 57.3 | 103
CN(C)c1c(Br)cc2cc(C(=O)NS(=O)(=O)c3ccccc3-c3ccccc3)oc2c1F [US12357603, Example 206] | 4700 | 
CCN(C)c1ccc2cc(C(=O)NS(=O)(=O)c3ccc(Cl)cc3Cl)oc2c1 [US12357603, Example 03] | 1390 | 810
CN(C)c1ccc2cc(C(=O)NS(=O)(=O)c3ccccc3-c3ccccc3)oc2c1C#N [US12357603, Example 64] | 14300 | 
CN(C)c1ccc2cc(C(=O)NS(=O)(=O)c3c(Cl)cccc3Cl)oc2c1 [US12357603, Example 98] | 465 | 
CN(c1ccc2cc(C(=O)NS(=O)(=O)c3ccccc3-c3ccccc3)oc2c1)C1CCCC1 [US12357603, Example 46] | 3650 | 112
CC(C)Oc1ccccc1S(=O)(=O)NC(=O)c1cc2cc(Br)c(N(C)C)cc2o1 [US12357603, Example 208] | 7760 | 

The remaining lines, values ahead:

IC50 [1] [nM] | IC50 [2] [nM] | SMILES
903 |  | Cc1ccc2cccc(S(=O)(=O)NC(=O)c3cc4cc(C#N)c(N(C)C)cc4o3)c2n1 [US12357603, Example 209]
92.8 | 52.2 | CN(C)c1ccc2cc(C(=O)NS(=O)(=O)c3cc(Cl)cc4cccnc34)oc2c1 [US12357603, Example 124]
1060 |  | CCOc1ccc(Br)cc1S(=O)(=O)NC(=O)c1cc2ccc(N(C)CCOC)cc2o1 [US12357603, Example 213]
13500 | > 20000 | O=C(NS(=O)(=O)c1ccccc1-c1ccccc1)c1cc2ccc(N3CCCC3=O)cc2o1 [US12357603, Example 62]
 | 534 | COCCN(C)c1ccc2cc(C(=O)NS(=O)(=O)c3ccccc3-c3ccccc3)oc2c1 [US12357603, Example 39]
